From US20110071201A1, “PHENOL-CONTAINING AZOLE COMPOSITIONS FOR THE PROTECTION OF INDUSTRIAL MATERIALS” (LANXESS DEUTSCHLAND GMBH, priority 2009, published 2011)

Assays:
Coriolus versicolor = assay: Agar hyphae growth inhibition test (MIC) with Kull synergism index; assay type: cell-based; details: Trametes versicolor, 168 h; malt extract/peptone nutrient agar, 26° C., about 1 week; concentration at which radial hyphae growth was suppressed completely; read-out: MIC value against Coriolus versicolor
Procedure: Mycelium pieces were punched out of a colony of the wood-destroying organism Coriolus versicolor and incubated on a malt extract/peptone-containing nutrient agar at 26° C. The growth of the hyphae with and without active compound and 6,6′-di-tert-butyl-2,2′-methylenedi-p-cresol was compared. The minimum inhibitory concentration (MIC) stated was the concentration at which the radial hyphae growth was suppressed completely (incubation time: about 1 week, independently of the fungal growth of the comparative sample without active compound).
The synergism was determined by the method described by Kull et al. (F. C. Kull, P. C. Eismann, H. D. Sylvestrowicz, R. L. Mayer, Applied Microbiology 1961, 9, 538-541). The following relationships apply:
SI=1 means additivity SI>1 means antagonism SI<1 means synergism Qa=concentration of substance A which is the MIC Qb=concentration of substance B which is the MIC QA=concentration of substance A in the concentration of A/B at which microbial growth is suppressed QB=concentration of substance B in the concentration of A/B at which microbial growth is suppressed

[1] = Solubility in water and vapour pressure; assay type: physicochemical
Lentinus tigrinus = assay: Agar hyphae growth inhibition test (MIC) with Kull synergism index; assay type: cell-based; details: 168 h, malt extract/peptone nutrient agar, 26° C., about 1 week, concentration at which radial hyphae growth was suppressed completely, read-out: MIC value against Lentinus tigrinus

`Cc1cc(Cc2cc(C)cc(C(C)(C)C)c2O)c(O)c(C(C)(C)C)c1` [phenol I, 6,6′-di-tert-butyl-2,2′-methylenedi-p-cresol] gave an MIC (Coriolus versicolor) of over 30 µg/mL, a solubility in water [1] of under 1 ppm and a vapour pressure ([1]; at 50° C.) of 0.0001 hPa.

In the case of `CC(C)(C)C(O)(CCc1ccc(Cl)cc1)Cn1cncn1` (centres unmarked) [tebuconazole, reference compound], the MIC (Coriolus versicolor) is reported as 1 µg/mL and the MIC (Lentinus tigrinus) is reported as 0.3 µg/mL.
